Measured values: ChEMBL document CHEMBL3046894, “Synthesis and Herbicidal Activity of Pyrimidinyl Salicylic and Thiosalicylic Acids” (J Pestic Sci, 1996)
The source made the active and inactive calls. The calls are words filed in the database; no cut-off is given here.

Legend:
Cyperus iria [1] = test: Post-emergence herbicidal activity against Cyperus iria assessed as growth inhibition at 25 g a.i/10 a applied 11 days after germination as foliar spray; type: functional, organism-based
Ipomoea lacunosa [2] = test: Pre-emergence herbicidal activity against Ipomoea lacunosa assessed as mortality at 1.6 g a.i/10 a; type: functional; conditions: Ipomoea lacunosa, pre-emergence
Cyperus iria [3] = test: Pre-emergence herbicidal activity against Cyperus iria assessed as growth inhibition at 25 g a.i/10 a; type: functional, organism-based
Echinochloa crus-galli [4] = test: Post-emergence herbicidal activity against Echinochloa crus-galli (barnyard grass) assessed as mortality at 6.3 g a.i/10 a applied 11 days after germination as foliar spray; type: functional; conditions: 264 h
Zea mays [5] = test: (§1) Pre-emergence phytotoxicity against Zea mays (maize) assessed as mortality at 1.6 g a.i/10 a; type: organism-based; conditions: in vivo, other
Digitaria sanguinalis [6] = test: Post-emergence herbicidal activity against Digitaria sanguinalis (hairy crabgrass) assessed as growth inhibition at 25 g a.i/10 a applied 11 days after germination as foliar spray; type: functional, organism-based
Gossypium hirsutum [7] = test: Post-emergence phytotoxicity against Gossypium hirsutum (cotton) assessed as mortality at 1.6 g a.i/10 a applied 11 days after germination as foliar spray; type: organism-based; conditions: in vivo, other, 264 h
Digitaria sanguinalis [8] = test: Pre-emergence herbicidal activity against Digitaria sanguinalis (hairy crabgrass) assessed as growth inhibition at 25 g a.i/10 a; type: functional, organism-based
Chenopodium album [9] = test: Post-emergence herbicidal activity against Chenopodium album assessed as growth inhibition at 25 g a.i/10 a applied 11 days after germination as foliar spray; type: functional, organism-based
Gossypium hirsutum [10] = test: Post-emergence phytotoxicity against Gossypium hirsutum (cotton) assessed as mortality at 6.3 g a.i/10 a applied 11 days after germination as foliar spray; type: organism-based; conditions: in vivo, other, 264 h
Ipomoea lacunosa [11] = test: Post-emergence herbicidal activity against Ipomoea lacunosa assessed as mortality at 1.6 g a.i/10 a applied 11 days after germination as foliar spray; type: functional; conditions: 264 h
Persicaria nodosa [12] = test: Post-emergence herbicidal activity against Persicaria nodosa assessed as growth inhibition at 25 g a.i/10 a applied 11 days after germination as foliar spray; type: functional, organism-based
[13] = (§2) Post-emergence phytotoxicity against Glycine max (soybean) assessed as mortality at 1.6 g a.i/10 a applied 11 days after germination as foliar spray; type: organism-based; conditions: in vivo, 1.6 g a.i/10 a
Glycine max [14] = test: (§3) Pre-emergence phytotoxicity against Glycine max (soybean) assessed as mortality at 6.3 g a.i/10 a; type: organism-based; conditions: in vivo, other
Amaranthus retroflexus [15] = test: Post-emergence herbicidal activity against Amaranthus retroflexus assessed as growth inhibition at 25 g a.i/10 a applied 11 days after germination as foliar spray; type: functional, organism-based
Echinochloa crus-galli [16] = test: Pre-emergence herbicidal activity against Echinochloa crus-galli (barnyard grass) assessed as mortality at 6.3 g a.i/10 a; type: functional; conditions: Echinochloa crus-galli, pre-emergence
Echinochloa crus-galli [17] = test: Pre-emergence herbicidal activity against Echinochloa crus-galli (barnyard grass) assessed as growth inhibition at 25 g a.i/10 a; type: functional, organism-based
Glycine max [18] = test: Pre-emergence phytotoxicity against Glycine max (soybean) assessed as mortality at 1.6 g a.i/10 a; type: organism-based; conditions: in vivo, other
[19] = (§4) Post-emergence phytotoxicity against Zea mays (maize) assessed as mortality at 1.6 g a.i/10 a applied 11 days after germination as foliar spray; type: organism-based; conditions: in vivo, 1.6 g a.i/10 a
Xanthium strumarium [20] = test: Post-emergence herbicidal activity against Xanthium strumarium (cocklebur) assessed as mortality at 1.6 g a.i/10 a applied 11 days after germination as foliar spray; type: functional; conditions: 264 h
Chenopodium album [21] = test: Pre-emergence herbicidal activity against Chenopodium album assessed as growth inhibition at 25 g a.i/10 a; type: functional, organism-based
Amaranthus retroflexus [22] = test: Pre-emergence herbicidal activity against Amaranthus retroflexus assessed as growth inhibition at 25 g a.i/10 a; type: functional, organism-based
Abutilon theophrasti [23] = test: Post-emergence herbicidal activity against Abutilon theophrasti (velvetleaf) assessed as mortality at 6.3 g a.i/10 a applied 11 days after germination as foliar spray; type: functional; conditions: 264 h
Echinochloa crus-galli [24] = test: Post-emergence herbicidal activity against Echinochloa crus-galli (barnyard grass) assessed as growth inhibition at 25 g a.i/10 a applied 11 days after germination as foliar spray; type: functional, organism-based
Persicaria nodosa [25] = test: Pre-emergence herbicidal activity against Persicaria nodosa assessed as growth inhibition at 25 g a.i/10 a; type: functional, organism-based
Gossypium hirsutum [26] = test: Pre-emergence phytotoxicity against Gossypium hirsutum (cotton) assessed as mortality at 6.3 g a.i/10 a; type: organism-based; conditions: in vivo, other
Abutilon theophrasti [27] = test: Post-emergence herbicidal activity against Abutilon theophrasti (velvetleaf) assessed as mortality at 1.6 g a.i/10 a applied 11 days after germination as foliar spray; type: functional; conditions: 264 h
Xanthium strumarium [28] = test: Pre-emergence herbicidal activity against Xanthium strumarium (cocklebur) assessed as mortality at 1.6 g a.i/10 a; type: functional; conditions: Xanthium strumarium, pre-emergence
Ipomoea lacunosa [29] = test: Pre-emergence herbicidal activity against Ipomoea lacunosa assessed as mortality at 6.3 g a.i/10 a; type: functional; conditions: Ipomoea lacunosa, pre-emergence
Glycine max [30] = test: as §2; type: organism-based; conditions: in vivo, other, 264 h
Zea mays [31] = test: Post-emergence phytotoxicity against Zea mays (maize) assessed as mortality at 6.3 g a.i/10 a applied 11 days after germination as foliar spray; type: organism-based; conditions: in vivo, other, 264 h
Zea mays [32] = test: as §4; type: organism-based; conditions: in vivo, other, 264 h
[33] = as §1; type: organism-based; conditions: in vivo, 1.6 g a.i/10 a, read-out: mortality
Abutilon theophrasti [34] = test: Pre-emergence herbicidal activity against Abutilon theophrasti (velvetleaf) assessed as mortality at 6.3 g a.i/10 a; type: functional; conditions: Abutilon theophrasti, pre-emergence
[35] = as §3; type: organism-based; conditions: in vivo, 6.3 g a.i/10 a, read-out: mortality
Gossypium hirsutum [36] = test: Pre-emergence phytotoxicity against Gossypium hirsutum (cotton) assessed as mortality at 1.6 g a.i/10 a; type: organism-based; conditions: in vivo, other

Row | SMILES | growth inhibition (GI) (Cyperus iria [1]) | mortality at 16 g/ha (Ipomoea lacunosa [2]) [%] | growth inhibition (GI) (Cyperus iria [3]) | mortality at 63 g/ha (Echinochloa crus-galli [4]) [%] | growth inhibition (GI) (Digitaria sanguinalis [6]) | Activity (Gossypium hirsutum [7]) | growth inhibition (GI) (Digitaria sanguinalis [8]) | growth inhibition (GI) (Chenopodium album [9]) | Activity (Gossypium hirsutum [10]) | growth inhibition (GI) (Persicaria nodosa [12]) | growth inhibition (GI) (Amaranthus retroflexus [15]) | growth inhibition (GI) (Echinochloa crus-galli [17]) | Activity (Glycine max [18]) | growth inhibition (GI) (Chenopodium album [21]) | growth inhibition (GI) (Amaranthus retroflexus [22]) | mortality at 63 g/ha (Abutilon theophrasti [23]) [%] | growth inhibition (GI) (Echinochloa crus-galli [24]) | growth inhibition (GI) (Persicaria nodosa [25]) | Activity (Gossypium hirsutum [26]) | mortality at 16 g/ha (Abutilon theophrasti [27]) [%] | other results
1 | CCc1cccc(Oc2nc(OC)cc(OC)n2)c1C(=O)O | Active | < 5 | Active | > 90 | Active | Toxic | Active | Active | Toxic | Active | Active | Active | Non-toxic | Active | Active | > 90 | Active | Active | Non-toxic | > 90 | Activity (Zea mays [5]): Toxic; mortality at 16 g/ha (Ipomoea lacunosa [11]): < 5%; mortality at 264 h [13]: > 90%; Activity (Glycine max [14]): Toxic; mortality at 63 g/ha (Echinochloa crus-galli [16]): > 90%; mortality at 264 h [19]: > 90%; mortality at 16 g/ha (Xanthium strumarium [20]): < 5%; mortality at 16 g/ha (Xanthium strumarium [28]): < 5%
2 | CCOc1cccc(Oc2nc(OC)cc(OC)n2)c1C(=O)O | Active | < 5 | Active | – | Active | Non-toxic | Active | Active | Toxic | Active | Active | Active | Non-toxic | Active | Active | > 90 | Active | Active | Non-toxic | – | Activity (Zea mays [5]): Toxic; mortality at 63 g/ha (Ipomoea lacunosa [29]): < 5%; mortality at 264 h [13]: > 90%; Activity (Glycine max [14]): Toxic; mortality at 264 h [19]: > 90%; mortality at 16 g/ha (Xanthium strumarium [28]): < 5%
3 | COc1cc(OC)nc(Oc2cccc(N)c2C(=O)O)n1 | Active | – | Active | – | Active | Non-toxic | inactive | Active | Toxic | Active | Active | inactive | – | Active | Active | – | Active | inactive | – | < 5 | Activity (Glycine max [30]): Toxic; Activity (Zea mays [31]): Toxic; Activity (Zea mays [32]): Toxic; mortality at 16 g/ha (Xanthium strumarium [20]): < 5%
4 | COc1cc(OC)nc(Oc2cccc(F)c2C(=O)O)n1 | Active | < 5 | Active | > 90 | Active | Toxic | Active | Active | Toxic | Active | Active | Active | Toxic | Active | Active | > 90 | Active | Active | Toxic | > 90 | mortality [33]: > 90%; mortality at 63 g/ha (Abutilon theophrasti [34]): > 90%; Activity (Glycine max [30]): Toxic; mortality [35]: > 90%; mortality at 63 g/ha (Echinochloa crus-galli [16]): > 90%; Activity (Zea mays [32]): Toxic; Activity (Gossypium hirsutum [36]): Non-toxic
